Experiments:
[1] = tested on: TE-1 (Esophageal Squamous Cell Carcinoma); experiment: Bliss excess, mean over the matrix (fraction); higher = more synergy
Summary of the method: (§1)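 Cell lines grown in DMEM/F12 or RPMI with 10% FBS were plated in 1536-well plates and held 24 hours at 37°C, 5% CO2 before 72 hours of exposure to two-drug dose matrices, with DMSO typically at 0.2%. CellTiter-Glo 2.0 luminescence gave viability, which was converted to inhibition. Vehicle wells were set to 0 and blank wells to 1. Combination Emax is the second-highest inhibition in the matrix, and Bliss excess is the observed combination effect minus the expected EA + EB − EA·EB, where EA and EB are the single-agent effects.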

[2] = tested on: MLMA (Other Blood Carcinomas); experiment: as above
Summary of the method: as §1

TGW (Neuroblastoma) = experiment: as above
Summary of the method: as §1

[3] = tested on: KYSE-450 (Esophageal Squamous Cell Carcinoma); experiment: as above
Summary of the method: as §1

[4] = tested on: MIA-PaCa-2 (Pancreatic Carcinoma); experiment: as above
Summary of the method: as §1

[5] = tested on: Caov-4 (Ovarian Carcinoma); experiment: as above
Summary of the method: as §1

EW-24 (Ewing's Sarcoma) = experiment: as above
Summary of the method: as §1

[6] = tested on: OSC-20 (Oral Cavity Carcinoma); experiment: as above
Summary of the method: as §1

[7] = tested on: Hs-766T (Pancreatic Carcinoma); experiment: as above
Summary of the method: as §1

TK10 (Kidney Carcinoma) = experiment: as above
Summary of the method: as §1

D-263MG (Glioblastoma) = experiment: as above
Summary of the method: as §1

[8] = tested on: NCI-H1915 (Non-Small Cell Lung Carcinoma); experiment: as above
Summary of the method: as §1

[9] = tested on: HOP-62 (Lung Adenocarcinoma); experiment: as above
Summary of the method: as §1

[10] = tested on: EFM-19 (Breast Carcinoma); experiment: as above
Summary of the method: as §1

[11] = tested on: EoL-1-cell (Acute Myeloid Leukemia); experiment: as above
Summary of the method: as §1

[12] = tested on: Ca9-22 (Head and Neck Carcinoma); experiment: as above
Summary of the method: as §1

[13] = tested on: NCI-H727 (Other Solid Carcinomas); experiment: as above
Summary of the method: as §1

[14] = tested on: VA-ES-BJ (Other Solid Carcinomas); experiment: as above
Summary of the method: as §1

NB69 (Neuroblastoma) = experiment: as above
Summary of the method: as §1

[15] = tested on: NEC8 (Other Solid Carcinomas); experiment: combination Emax (second highest fraction inhibited in the dose matrix, 72 h); higher = more inhibition; extreme values may be limits of the assay
Summary of the method: as §1
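For Bliss excess, mean over the matrix in this document: after 72 h of two-drug dosing.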

Row | Compound | Bliss excess [1] | Bliss excess [2] | Bliss excess (TGW (Neuroblastoma)) | Bliss excess [3] | Bliss excess [4] | Bliss excess [5] | Bliss excess (EW-24 (Ewing's Sarcoma)) | Bliss excess [6] | Bliss excess [7] | Bliss excess (TK10 (Kidney Carcinoma)) | Bliss excess (D-263MG (Glioblastoma)) | Bliss excess [8] | Bliss excess [9] | Bliss excess [10] | Bliss excess [11] | Bliss excess [12] | Bliss excess [13] | Bliss excess [14] | Bliss excess (NB69 (Neuroblastoma)) | combination Emax [15]
1 | Cn1cnc2c(F)c(Nc3ccc(Br)cc3Cl)c(C(=O)NOCCO)cc21 [Selumetinib] + C[C@@H]1COCCN1C2=NC(=NC(=C2)C3(CC3)[S@](=N)(=O)C)C4=C5C=CNC5=NC=C4 [AZD6738] (first compound max 10 µM, 7x7, partner max 10 µM) | -0.0229 | -0.106 | -0.0288 | 0.0046 | 0.0499 | -0.0221 | -0.0785 | -0.0613 | -0.0794 | -0.0373 | -0.03 | -0.0264 | -0.0175 | -0.0188 | 0.0058 | -0.0197 | 0.0201 | -0.0714 | -0.0029 | 0.764
2 | Cn1cnc2c(F)c(Nc3ccc(Br)cc3Cl)c(C(=O)NOCCO)cc21 [Selumetinib] + CC(C)n1c(=O)n(C)c2cnc3cc(F)c(-c4ccc(OCCCN5CCCCC5)nc4)cc3c21 [AZD1390] (first compound max 10 µM, 7x7, partner max 0.3 µM) | 0.0347 | -0.0186 | -0.0393 | -0.0416 | -0.0287 | -0.0382 | -0.0594 | -0.0269 | -0.0215 | -0.0336 | -0.0352 | -0.061 | -0.0451 | -0.0264 | 0.0004 | 0.0337 | -0.0229 | -0.0471 | -0.0538 | 0.0259
3 | COc1nnc2ccc(N3CCC(c4ccc(OCCN5CCN(C)C(=O)[C@H]5C)cc4)CC3)nn12 [AZD5153] + Cc1c2c(nn1C)CSCc1cc(n(C)n1)CSc1cc(c3ccccc3c1)OCCCc1c(C(=O)O)n(C)c3c-2c(Cl)ccc13 [AZD5991] (first compound max 1 µM, 7x7, partner max 1 µM) | -0.0166 | -0.0085 | -0.0523 | -0.0579 | 0.0438 | 0.0265 | -0.0044 | -0.0091 | -0.0369 | -0.0459 | 0.105 | -0.0343 | -0.0482 | 0.059 | -0.0073 | 0.0049 | -0.0398 | -0.0174 | -0.0334 | 1
4 | Cc1c2c(nn1C)CSCc1cc(n(C)n1)CSc1cc(c3ccccc3c1)OCCCc1c(C(=O)O)n(C)c3c-2c(Cl)ccc13 [AZD5991] + Cc1cc2ncnn2cc1Nc1ncc2c(n1)n(C1CCOCC1)c(=O)n2C [AZD7648] (first compound max 1 µM, 7x7, partner max 10 µM) | -0.0494 | -0.0001 | -0.03 | -0.0321 | -0.0385 | 0.0024 | -0.035 | -0.0567 | -0.0936 | -0.0327 | 0.0046 | -0.0226 | -0.0758 | -0.0215 | -0.0018 | 0.0048 | -0.0833 | -0.0239 | -0.0009 | 0.339
5 | Cc1c2c(nn1C)CSCc1cc(n(C)n1)CSc1cc(c3ccccc3c1)OCCCc1c(C(=O)O)n(C)c3c-2c(Cl)ccc13 [AZD5991] + C=CCn1c(=O)c2cnc(Nc3ccc(N4CCN(C)CC4)cc3)nc2n1-c1cccc(C(C)(C)O)n1 [AZD1775] (first compound max 1 µM, partner max 1 µM) | -0.0456 | -0.0326 | -0.0538 | 0.025 | -0.0424 | -0.0345 | 0.0056 | -0.0115 | 0.0172 | 0.0159 | -0.0168 | -0.0552 | -0.0288 | 0.054 | 0.0097 | -0.032 | -0.0171 | 0.0475 | -0.0267 | 0.851
6 | Cc1c2c(nn1C)CSCc1cc(n(C)n1)CSc1cc(c3ccccc3c1)OCCCc1c(C(=O)O)n(C)c3c-2c(Cl)ccc13 [AZD5991] + C[C@@H]1COCCN1C2=NC(=NC(=C2)C3(CC3)[S@](=N)(=O)C)C4=C5C=CNC5=NC=C4 [AZD6738] (first compound max 1 µM, 7x7, partner max 10 µM) | 0.0125 | -0.0392 | 0.0167 | 0.0407 | 0.0652 | -0.0205 | -0.0078 | 0.0592 | 0.0201 | -0.0599 | -0.0023 | 0.0212 | 0.0213 | 0.0543 | 0.0036 | 0.0573 | 0.025 | 0.0023 | 0.0301 | 0.978
7 | Cc1c2c(nn1C)CSCc1cc(n(C)n1)CSc1cc(c3ccccc3c1)OCCCc1c(C(=O)O)n(C)c3c-2c(Cl)ccc13 [AZD5991] + CCN(CCO)CCCOc1ccc2c(Nc3cc(CC(=O)Nc4cccc(F)c4)[nH]n3)ncnc2c1 [AZD2811] (first compound max 1 µM, 7x7, partner max 1 µM) | 0.0705 | 0.028 | 0.0418 | 0.0499 | 0.0738 | 0.0337 | -0.0172 | 0.0042 | -0.0019 | 0.0117 | 0.122 | 0.0197 | – | 0.122 | 0.0044 | 0.0626 | 0.0473 | 0.0703 | 0.0311 | 0.33
8 | CCc1c2c(nc3ccc(O)cc13)-c1cc3c(c(=O)n1C2)COC(=O)[C@]3(O)CC [SN-38] + O=C(c1cc(Cc2n[nH]c(=O)c3ccccc23)ccc1F)N1CCN(C(=O)C2CC2)CC1 [Olaparib] (first compound max 0.3 µM, 7x7, partner max 10 µM) | – | 0.038 | 0.06 | 0.0808 | 0.0701 | 0.0748 | 0.0359 | -0.0034 | 0 | 0.011 | 0.0617 | – | 0.0562 | 0.0496 | 0.135 | 0.0176 | -0.0075 | -0.0117 | 0.0236 | 1
9 | Cc1c2c(nn1C)CSCc1cc(n(C)n1)CSc1cc(c3ccccc3c1)OCCCc1c(C(=O)O)n(C)c3c-2c(Cl)ccc13 [AZD5991] + C[C@@H](Nc1cc(F)cc(F)c1)c1cc(C(=O)N(C)C)cc2c(=O)cc(N3CCOCC3)oc12 [AZD8186] (first compound max 1 µM, 7x7, partner max 3 µM) | -0.0186 | 0.0282 | -0.0155 | – | -0.0095 | -0.0121 | -0.0426 | -0.0335 | -0.111 | -0.0736 | 0.0849 | -0.0265 | -0.0421 | -0.0123 | 0.0072 | -0.012 | 0.0239 | 0.0068 | -0.0207 | 0.369
10 | Cc1c2c(nn1C)CSCc1cc(n(C)n1)CSc1cc(c3ccccc3c1)OCCCc1c(C(=O)O)n(C)c3c-2c(Cl)ccc13 [AZD5991] + Cn1cnc2c(F)c(Nc3ccc(Br)cc3Cl)c(C(=O)NOCCO)cc21 [Selumetinib] (first compound max 1 µM, 7x7, partner max 3 µM) | 0.019 | 0.0463 | 0.0029 | 0.0036 | 0.0197 | 0.0604 | -0.017 | 0.0146 | -0.0859 | 0.0135 | -0.0318 | 0.0375 | -0.0626 | – | 0.0751 | 0.0185 | 0.0213 | 0.0207 | 0.0377 | 0.383
11 | Cc1c2c(nn1C)CSCc1cc(n(C)n1)CSc1cc(c3ccccc3c1)OCCCc1c(C(=O)O)n(C)c3c-2c(Cl)ccc13 [AZD5991] + CC1(C)CCC(CN2CCN(c3ccc(C(=O)NS(=O)(=O)c4ccc(NCC5CCOCC5)c([N+](=O)[O-])c4)c(Oc4cnc5[nH]ccc5c4)c3)CC2)=C(c2ccc(Cl)cc2)C1 [Venetoclax] (first compound max 1 µM, 7x7, partner max 1 µM) | – | -0.0034 | 0.128 | -0.0061 | -0.023 | -0.0137 | -0.0224 | -0.0059 | -0.132 | -0.0581 | -0.0036 | -0.0211 | -0.0574 | 0.0055 | 0.167 | -0.006 | -0.012 | -0.0429 | 0.136 | 0.793
12 | Cc1c2c(nn1C)CSCc1cc(n(C)n1)CSc1cc(c3ccccc3c1)OCCCc1c(C(=O)O)n(C)c3c-2c(Cl)ccc13 [AZD5991] + CN(C)CCCOc1ccc(-c2ccc3ncc4c(c3c2)n(C2CCOCC2)c(=O)n4C)cn1 [AZD0156] (first compound max 1 µM, 7x7, partner max 1 µM) | -0.0702 | -0.0056 | -0.0079 | 0.0134 | -0.0084 | -0.0035 | 0.0103 | 0.0236 | -0.0006 | -0.0089 | 0.0047 | -0.0186 | – | -0.03 | -0.006 | -0.0131 | 0.043 | -0.0027 | -0.136 | 0.291
13 | CC1(C)CCC(CN2CCN(c3ccc(C(=O)NS(=O)(=O)c4ccc(NCC5CCOCC5)c([N+](=O)[O-])c4)c(Oc4cnc5[nH]ccc5c4)c3)CC2)=C(c2ccc(Cl)cc2)C1 [Venetoclax] + CS(=O)(=O)CCNCc1ccc(-c2ccc3ncnc(Nc4ccc(OCc5cccc(F)c5)c(Cl)c4)c3c2)o1 [Lapatinib] (first compound max 1 µM, 7x7, partner max 10 µM) | – | -0.0329 | -0.0223 | -0.0413 | 0.0099 | -0.0353 | -0.0183 | – | -0.0636 | -0.0141 | -0.0669 | – | – | -0.002 | 0.0351 | 0.0232 | -0.012 | – | 0.0877 | –
14 | CN(CCO)CC[C@H](CSc1ccccc1)Nc1ccc(S(=O)(=O)NC(=O)c2ccc(N3CCC([C@@H](O)c4ccccc4-c4ccc(Cl)cc4)CC3)cc2)cc1S(=O)(=O)C(F)(F)F [AZD4320] + CS(=O)(=O)CCNCc1ccc(-c2ccc3ncnc(Nc4ccc(OCc5cccc(F)c5)c(Cl)c4)c3c2)o1 [Lapatinib] (first compound max 1 µM, 7x7, partner max 10 µM) | – | 0.014 | 0.0959 | -0.0459 | 0.0373 | -0.0144 | 0.0333 | – | -0.0586 | -0.0942 | -0.0288 | – | – | 0.013 | 0.05 | 0.0479 | 0.0904 | – | 0.0465 | –

— the supplement of paper PMC11061612
